Holding throughout (format): physicochemical
A short description of series [1]: Solubilizing effect of solubilizer on compound 72 (Comparative Example 1): stepwise solvent addition, sonication and vortex mixing. How it is done: Solubilizing Effect of Solubilizer on Compound 72
The solvent (1 ml) shown in Table 6 was added to compound 72 (5 mg), and solubility was confirmed after sonication and vortex mixing. When not dissolved, the solvent (1 ml) was further added, and solubility was confirmed after sonication and vortex mixing in the same manner. The concentration at the time of dissolution was taken as solubility.

Series [2] is described as follows: Solubility of compound 72 in polyoxyethylene glycerol triricinoleate 35/ethanol solution (Experimental Example 1). Particulars: compound 72 (5 mg) in 50 μl polyoxyethylene glycerol triricinoleate 35/ethanol (w/w): 20/80 (Formulation 1), 65/35 (2), 100/0 (3). As to the method:
Polyoxyethylene glycerol triricinoleate 35/ethanol solution (50 μl) at a ratio (weight ratio) shown in Table 7 was added to compound 72 (5 mg), the mixture was stirred and the solubility was confirmed. The compound 72 dissolved at any mixing ratio, affording a clear solution.

A short description of series [3]: Solubility of compound 72 in polyoxyethylene hydrogenated castor oil 50/ethanol solution (Experimental Example 4). As to the method: Polyoxyethylene hydrogenated castor oil 50/ethanol solution (50 μl) at a ratio (weight ratio) shown in Table 11 was added to compound 72 (5 mg), the mixture was stirred and the solubility was confirmed. The compound 72 dissolved at any mixing ratio, affording a clear solution.

Series [4] in a line: Solubility of compound 72 in 40% aqueous 2-hydroxypropyl-β-cyclodextrin (Experimental Example 8). Particulars: HP-β-CyD concentration 40% aqueous solution. As to the method: 40% Aqueous solution of 2-hydroxypropyl-β-cyclodextrin (hereinafter abbreviated as HP-β-CyD) (1 ml) was added to compound 72 (5 mg), and the solubility was confirmed by sonication and vortex mixing. When not dissolved, 40% HP-β-CyD solution (1 ml) was further added, and solubility was confirmed after sonication and vortex mixing in the same manner. The concentration at the time of dissolution was taken as solubility.

The nature of series [5]: Solubility of compound 72 in aqueous maltosyl-β-cyclodextrin, HPLC method (Experimental Example 9). Conditions: 25° C., 3 hr shaking. As to the method: An aqueous solution of maltosyl-β-cyclodextrin (hereinafter abbreviated as G2-β-CyD) at a concentration shown in Table 18 was added to compound 72 (100 mg) and the mixture was shaken at 25° C. for 3 hr. The solution was filtrated through a 0.45 μm filter, and the solubility of compound 72 was quantitatively determined by HPLC method.

Molecules are shown by their SMILES. Converted amounts (≈) assume the structure as drawn.

As usually defined, the Solubility is the dissolved amount per volume that the medium holds. Read a low Solubility as little dissolved substance. Consider `CCOC(=O)C1=CCCCC1S(=O)(=O)Nc1ccc(F)cc1Cl` (stereo not drawn) [compound 72, d-ethyl 6-[N-(2-chloro-4-fluorophenyl)sulfamoyl]-1-cyclohexene-1-carboxylate], for which the Solubility entry in series [1] (solvent 10% Pluronic F68 (polyoxyethylene(160)polyoxypropylene(30)glycol), lower concentrations not examined) was “Not more than 0.5 mg/ml”; in series [1] (solvent 10% ethanol, lower concentrations not examined) it was “Not more than 0.5 mg/ml”; in series [1] (solvent 10% nicotinamide, lower concentrations not examined), “Not more than 0.5 mg/ml”; in series [1] (solvent 10% sodium desoxycholate), “about 0.7 mg/ml”; in series [1] (solvent 10% sodium salicylate, lower concentrations not examined) it was “Not more than 0.5 mg/ml”; in series [1] (solvent water) it was 13 µg/mL (≈ 0.0359 mM). For the same compound, the Solubility entry in series [2] was “not less than 100 mg/ml”; in series [3] (compound 72 (5 mg) in 50 μl polyoxyethylene hydrogenated castor oil 50/ethanol (w/w) 20/80) it was “Not less than 100 mg/ml”; in series [3] (compound 72 (5 mg) in 50 μl polyoxyethylene hydrogenated castor oil 50/ethanol (w/w) 65/35) it was “Not less than 100 mg/ml”; in series [5] (G2-β-CyD concentration 10%) it was 4900 µg/mL (≈ 13.5 mM); in series [5] (G2-β-CyD concentration 20%), 13000 µg/mL (≈ 35.9 mM); in series [5] (G2-β-CyD concentration 40%) it was 31700 µg/mL (≈ 87.6 mM). Also, the “solubility of compound 72 in the solvent used” value in series [3] (polyoxyethylene hydrogenated castor oil 50/ethanol, any mixing ratio of Table 11) is “not less than 100 mg/ml”. Besides, the “Solubility (mg/ml)” value in series [4] is listed as “About 1.7 mg/ml”.
